Measured values from patent publication US20210290597A1, “METHOD OF TREATING A CONDITION ASSOCIATED WITH NEURODEGENERATION USING INHIBITORS OF OAT3” (Neuropore Therapies, Inc., priority 2018, published 2021).

Columns and labels:
human transporter OAT1 = target: T1, human transporter OAT1 (Homo sapiens, UniProt Q4U2R8); assay: In vitro ion transport assay 1, OAT1-mediated uptake in MDCK-II cells; format: cell-based; settings: probe substrate 2 μM [3H]-p-aminohippurate
T1 construct: expressed in transfected cells; host or cells: MDCK-II
T1 sequence (Q4U2R8 1-563): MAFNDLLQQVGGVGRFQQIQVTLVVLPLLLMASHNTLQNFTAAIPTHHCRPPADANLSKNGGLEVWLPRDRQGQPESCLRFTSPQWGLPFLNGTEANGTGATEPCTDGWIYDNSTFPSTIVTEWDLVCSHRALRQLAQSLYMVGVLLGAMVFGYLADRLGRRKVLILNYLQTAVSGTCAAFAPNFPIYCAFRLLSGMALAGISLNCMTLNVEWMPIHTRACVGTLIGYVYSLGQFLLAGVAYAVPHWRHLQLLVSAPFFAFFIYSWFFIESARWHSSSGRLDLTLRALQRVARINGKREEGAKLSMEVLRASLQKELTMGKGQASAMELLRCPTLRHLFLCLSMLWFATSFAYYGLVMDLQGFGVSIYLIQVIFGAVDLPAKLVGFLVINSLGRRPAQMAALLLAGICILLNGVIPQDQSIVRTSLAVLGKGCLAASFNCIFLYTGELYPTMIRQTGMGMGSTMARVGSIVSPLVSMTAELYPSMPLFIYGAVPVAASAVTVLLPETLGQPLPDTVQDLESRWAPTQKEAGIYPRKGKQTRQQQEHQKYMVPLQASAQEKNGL
Experimental: To determine the effect of the ion transporter inhibitors on the uptake activity of solute carrier (SLC) ion transporter proteins such as OAT1 and OAT3, an ion transport assay utilizing a polarized monolayer of MDCK-II cells grown on permeable supports was used. The MDCK-II cells were treated to express the transporter of interest (e.g., OAT3 or OAT 1) or were treated with a control vector. 96-well culture plates with both donor and receiver cells containing a monolayer of MDCK-II cells were maintained at 37° C. in 5% CO2 atmosphere. Radio-labeled para-aminohippurate ([3H]-PAH) was used as a substrate for measuring OAT1 and OAT3 mediated transport, where the transport of the substrate was determined by radiometric detection. OAT1-mediated transport was assayed using 2 μM of [3H]-PAH; OAT3-mediated transport was assayed using 10 μM of [3H]-PAH. The probe substrate for OAT1 was 2 μM [3H]-p-aminohippurate. The probe substrate for OAT3 was 10 μM [3H]p-aminohippurate. The reference inhibitor for both assays was 100 μM probenecid. Following pre incubation of the transfected MDCK-II cells in HBSS, [3H]-PAH was added at the concentrations described above. Wells were then treated with either reference inhibitor probeneic acid or with the test compound. Cells transfected with empty vector served as an additional control. […]

human transporter MATE1 = target: T2, human transporter MATE1 (Homo sapiens, UniProt Q96FL8); assay: In vitro ion transport assay 1, MATE1; format: cell-based; settings: probe substrate 10 μM [14C]-metformin
T2 construct: expressed in transfected cells; host or cells: MDCK-II
T2 sequence (Q96FL8 1-570): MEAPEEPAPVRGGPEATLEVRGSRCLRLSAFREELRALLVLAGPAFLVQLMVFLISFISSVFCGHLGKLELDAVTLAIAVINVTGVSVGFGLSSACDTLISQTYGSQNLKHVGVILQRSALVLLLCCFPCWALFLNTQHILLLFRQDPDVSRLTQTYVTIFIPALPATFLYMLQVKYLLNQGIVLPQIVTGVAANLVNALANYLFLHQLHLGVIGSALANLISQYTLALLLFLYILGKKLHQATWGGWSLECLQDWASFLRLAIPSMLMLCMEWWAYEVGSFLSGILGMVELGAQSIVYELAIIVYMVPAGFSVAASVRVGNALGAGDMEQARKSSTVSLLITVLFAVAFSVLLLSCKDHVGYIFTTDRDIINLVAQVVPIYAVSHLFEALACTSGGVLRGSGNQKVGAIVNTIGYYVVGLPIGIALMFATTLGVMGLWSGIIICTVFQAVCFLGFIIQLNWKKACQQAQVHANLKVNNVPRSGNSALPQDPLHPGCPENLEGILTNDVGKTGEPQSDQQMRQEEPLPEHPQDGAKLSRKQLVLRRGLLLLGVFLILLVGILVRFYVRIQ
Experimental: Compound 1 was studied in the concentration range of 0.1-100 μM for its potency against transport mediated by various transporter proteins. [table]

[1] = test system: PK-resistant alpha-synuclein; assay: PK-resistant (insoluble) alpha-synuclein IHC, L61 ASYN transgenic mice, 1 month study; format: in vivo; settings: for reduction of PK-resistant alpha synuclein levels in cortex compared to vehicle-treated mice: L61 ASYN transgenic mice
Experimental: Multiple in vivo administration studies of Compound 1 were carried out in the Line 61 (L61) mThy1-alpha-synuclein transgenic mouse model of Parkinson's disease (PD). The mThy1-alpha-synuclein transgenic mouse model overexpresses wild-type human ASYN under the Thy-1 promoter (commonly referred to as Line 61 transgenic mice; Rockenstein et al., 2002). This transgenic mouse develops extensive accumulation of alpha-synuclein (ASYN) in areas relevant to PD (Rockenstein et al., 2002; Chesselet et al., 2012; Games et al., 2013), neurodegeneration including dopaminergic neurodegeneration, reduced dopamine (DA) and TH loss in the striatum (Masliah et al., 2000; Lam et al., 2011), and motor deficits (Fleming et al., 2004). Male transgenic and non-transgenic littermates (3-3.5 mo) were used for all in vivo studies presented here.
Alpha-synuclein (ASYN) is a neuronal protein whose dysregulation has been implicated in the pathogenesis of PD. The effects of Compound 1 on alpha-synuclein aggregation were assessed in both L61 ASYN transgenic and non-transgenic mice in a 1 month administration study. L61 ASYN transgenic mice (36 total mice, n=8-11 mice per treatment group) were injected (i.p.) daily with 1, 5, or 10 mg/kg of Compound 1 or a vehicle control (5% DMSO+20% Cremphor EL+0.9% normal saline) for 1 month. […] At the end of one month, the mice were sacrificed, and immunohistochemical (IHC) detection of total alpha-synuclein deposits, insoluble alpha-synuclein deposits (PK+resistant), microtubule-associated protein 1A/1B-light chain 3 (LC3), and monomeric alpha-synuclein levels were assessed in the harvested brain tissues.
The quantification and IHC staining of PK-resistant alpha-synuclein were performed using known techniques (Rockenstein et al., J Neurosci Res. 2002, 68(5):568-78; Tanji et al., Acta Neuropathol. 2010, 120, 145-154; Nuber et al., Brain. 2013 February; 136(Pt 2):412-32).

IC50 (human transporter OAT1): 12.9 µM
IC50 (human transporter MATE1): 30.3 µM
SMILES: O=S(=O)(c1ccc(-n2cn[nH]c2=S)cc1)c1ccc(Cl)c(C(F)(F)F)c1 [Compound 1, 4-(4-((4-chloro-3-(trifluoromethyl)phenyl)sulfonyl)phenyl)-2,4-dihydro-3H-1,2,4-triazole-3-thione]
reduction of PK-resistant alpha synuclein levels in cortex compared to vehicle-treated mice ([1]; 5 mg/kg daily i.p.): 37%
reduction of PK-resistant alpha synuclein levels in cortex compared to vehicle-treated mice ([1]; 10 mg/kg daily i.p.): 36%
insoluble alpha-synuclein deposits (PK+resistant) in cortex, hippocampus and striatum ([1]; 1, 5 or 10 mg/kg per day i.p., statistically significant): reduced the insoluble alpha-synuclein deposits
